These results are taken from patent US20260315446A1, “ANTIFUNGAL COMPOUNDS AND USES THEREOF” (priority 2023, published 2026).

≈ marks a conversion by molar mass, not a printed value. Entries after “also recorded” stand apart in the source; their conditions may differ. Read-outs that look alike come from different tables or passages of the source.

For one assay, the system named is Aspergillus fumigatus. The assay can be described thus: Broth microdilution MIC/MEC (Example 1). To be noted: Aspergillus fumigatus; strain Af293; read-out: MEC against Aspergillus fumigatus (Af293). It counts as cell-based. The protocol:
(§1) MICs/minimum effective concentrations (MECs) were determined for each of the novel analogs against the three major human fungal pathogens, A. fumigatus, C. neoformans, and C. albicans. […] Thus, analogs of FK506 and FK520 can tolerate up to 100-fold reduction in antifungal activity and still be considered for in vivo testing. For C. neoformans, MICs were the most uniform and ranged from 0.2 to 2 μg/mL, which is between 4- and 40-fold reduced for antifungal activity.
To assess the antifungal activity against other human fungal pathogens, JH-FK-05 was selected to test against a panel of pathogenic molds and drug-resistant A. fumigatus strains (Table 4). JH-FK-05 registered MECs as low as 1 μg/mL for some of these highly recalcitrant species, such as Mucor circinelloides, Rhizopus oryzae, and pan azole-resistant A. fumigatus (strain F14946).
(§2) In vitro antifungal activities of FK506, FK520, and analogs were assessed in RPMI 1640 (Sigma-Aldrich) for all strains tested. MICs/minimum effective concentrations (MECs) for each drug were measured using modified Clinical and Laboratory Standards Institute (CLSI) M38-A2 and M27-A3 standard in vitro antifungal susceptibility protocols. Broth microdilution assays for MIC/MEC assessment were performed as described previously (see, Juvvadi P R, et al., 2019, Nat Commun 10:4275). All antifungal assays with C. neoformans were performed at 37° C. Antifungal susceptibility testing for C. albicans was performed in the presence of a uniform 1 μg/mL concentration of fluconazole to sensitize the organism to calcineurin inhibition.

Assay [1] relates to Candida albicans (SC5314). The assay can be described thus: Broth microdilution MIC (Example 1). Type of assay: cell-based. To be noted: Candida albicans, SC5314; in the presence of 1 μg/mL fluconazole; read-out: MIC against Candida albicans (SC5314). The protocol: as §1, §2
For orientation: Broth dilution looks for growth in wells or tubes with falling amounts of substance.

Assay [2] has as its system Cryptococcus neoformans (H99). The assay can be described thus: Broth microdilution MIC (Example 1). Type of assay: cell-based. To be noted: for MIC: Cryptococcus neoformans, 37° C., read-out: MIC against Cryptococcus neoformans (H99). The procedure:
as §1, §2

In assay [3] the test system is C. neoformans growth versus IL-2 in murine T cells. The assay is described as follows: Therapeutic index score (immunosuppressive fold change to antifungal fold change relative to FK506). The arrangement: species or system Cryptococcus neoformans; mouse. To be noted: Table 12, Example 4; FK506 = 1.0. The text has this:
To assess the therapeutic potential for these compounds, it was important to develop an approach to score and rank them based on antifungal and immunosuppressive activities. The therapeutic index score (TIscore) is a ratio of the immunosuppressive fold change to the antifungal fold change, with all values relative to the baseline FK506 activity (FIG. 6B). A TIscore of >1.0 indicates an increase in fungal specificity because the fold change of the immunosuppressive reduction is greater than the antifungal activity reduction. As an example, JH-FK-05 is 20-fold reduced for antifungal activity but about 180-fold reduced for immunosuppression. Therefore, the TIscore of JH-FK-05 is 9.1 (TIscore=182/20). The top two analogs were JH-FK-02 (TIscore=9.7) and JH-FK-05 (TIscore=9.1). Due to the similar TIscore, JH-FK-05 was prioritized to advance to animal trials on the merit of more pronounced antifungal activity compared to JH-FK-02.
Based on the in vitro fungal and mammalian calcineurin inhibition data, the panel of FK520 analogs was assessed and ranked. Therapeutic index (TI) scores were used to quantify the effects of structural modification on the compounds (Table 8). Therapeutic index scores were calculated for each analog as the ratio of relative change in immunosuppressive and antifungal activities compared to FK506 as previously utilized (see, I-Toy M J, et at. 2022. mBio 13:e0104922). This ratio of therapeutic benefit and host toxicity, or fungal and mammalian calcineurin inhibition, allowed us to quantify and rank these analogs. […] This is the greatest TI found within the library and allowed us to identify JH-FK-08 as a lead candidate for an in vivo study. Tolerability of JH-FK-08 was assessed by monitoring animal responses to drug dosing across 14 days, including changes in weight, fur condition, and behavior. A maximum dose of 40 mg/kg was tested in once a day dosing, and due to solubility limitations, the tolerability of JH-FK-08 at 60 and 80 mg/kg total daily doses was assessed by dosing two equal doses per day (FIG. 14). […] It should be noted that analogs JH-FK-12 and JH-FK-23 are also promising candidates with respective Tis of 24.7 and 24.5.

The test system of assay [4] is IL-2 expression in primary murine CD4+ T cells. The assay can be described thus: In vitro immunosuppressive activity, IL-2 expression (Example 4). The settings on record: for IC50: Mus musculus, CD4+ T. Type of assay: cell-based, mouse. The protocol:
Spleen and lymph nodes were collected from C57BL/6 mice and homogenized through a 40 μm filter. Pan-CD4^+ T cells were enriched using MagniSort Mouse CD4 T cell Kit (eBioscience) according to the manufacturer's protocol. Thereafter, CD4+CD25−CD44lo CD62Lhi naïve T cells were FACS-sorted. The naïve CD4+ T cells were grown in Iscove's Modified Dulbecco's Medium (IMDM) supplemented with glutamine, penicillin, streptomycin, gentamicin, 2-mercaptoethanol, and 10% FBS. Cells were then cultured on anti-hamster IgG coated plates in the presence of hamster anti-CD3 epsilon and anti-CD28 antibodies (BD Biosciences), neutralizing anti-IL-4 antibody (eBioscience), recombinant IL-12 (10 ng/mL), and recombinant IL-2 (50 U/mL) for 72 h. During this period, cells were grown in the presence of 2× serially diluted FK506, FK520, or analog suspended in DMSO for 72 h. During the last 4 h of culture, phorbol 12-myristate 13-acetate (PMA; Sigma), ionomycin (Sigma), and GolgiStop (BD Biosciences) were added to the culture to facilitate detection of intracellular cytokines via flow cytometry.
Live cells were stained with FITC-conjugated anti-CD4 antibody (eBioscience) and Fixable Viability Dye eFluor 506 (eBioscience) on ice, followed by fixation and permeabilization using the Foxp3 Transcription Factor Staining Kit (eBioscience). Intracellular staining was performed at room temperature using PE-conjugated anti-IL-2 antibody (eBioscience), followed by analysis with a BD LSRFortessa X-20 flow cytometer.

The next assay concerns C. neoformans. The assay can be described thus: MIC assay (Example 4). Type of assay: cell-based, Cryptococcus neoformans. To be noted: for MIC: Cryptococcus neoformans. The procedure: Both JH-FK-10 and JH-FK-11 maintained in vitro antifungal activity against C. neoformans with MICs of 0.8 and 1.6 μg/mL, respectively (Table 11).
In vitro antifungal activity of FK506, FK520, and analogs was assessed in RPMI 1640 (Sigma-Aldrich) for all strains tested. Minimum inhibitory concentrations (MIC) for each drug were measured using modified Clinical and Laboratory Standards Institute (CLSI) M38-A2 and M27-A3 standard in vitro antifungal susceptibility protocols. Broth microdilution assays for MIC assessment were performed as previously described. All antifungal assays with C. neoformans were performed at 37° C.

Turning to `C=CC[C@@H]1/C=C(\C)C[C@H](C)C[C@H](OC)[C@H]2O[C@@](O)(C(=O)C(=O)N3CCCC[C@H]3C(=O)O[C@H](/C(C)=C/[C@@H]3CC[C@@H](O)[C@H](OC)C3)[C@H](C)[C@@H](O)C/C1=N/NC(=O)c1ccccc1)[C@H](C)C[C@@H]2OC` [JH-FK-03], in the assay on Aspergillus fumigatus, the minimal effective concentration was found to be 1 µg/mL. Further, the MIC (usually the least concentration at which growth counts as inhibited) in assay [1] came to 0.8 µg/mL; in assay [2], 1 µg/mL (≈ 1.08 µM).
Regarding `C=CC[C@@H]1/C=C(\C)C[C@H](C)C[C@H](OC)[C@H]2O[C@@](O)(C(=O)C(=O)N3CCCC[C@H]3C(=O)O[C@H](/C(C)=C/[C@@H]3CC[C@@H](O)[C@H](OC)C3)[C@H](C)[C@@H](O)C/C1=N/NC(C)=O)[C@H](C)C[C@@H]2OC` [JH-FK-01], the minimal effective concentration in the assay with Aspergillus fumigatus amounted to 1 µg/mL. The figures for the MIC in assay [1] and in assay [2] were 0.4 µg/mL and 1 µg/mL (≈ 1.16 µM), respectively.
As for `C=CC[C@@H]1/C=C(\C)C[C@H](C)C[C@H](OC)[C@H]2O[C@@](O)(C(=O)C(=O)N3CCCC[C@H]3C(=O)O[C@H](/C(C)=C/[C@@H]3CC[C@@H](O)[C@H](OC)C3)[C@H](C)[C@@H](O)CC1=NNC(=O)CN(C)C)[C@H](C)C[C@@H]2OC` [JH-FK-04], the minimal effective concentration in the assay with Aspergillus fumigatus is 2 µg/mL. The MIC in assay [1] came to 6.25 µg/mL; in assay [2], 2 µg/mL (≈ 2.21 µM).
For `CC[C@@H]1/C=C(\C)C(O)[C@H](C)C[C@H](OC)[C@H]2O[C@@](O)(C(=O)C(=O)N3CCCC[C@H]3C(=O)O[C@H](/C(C)=C/[C@@H]3CC[C@@H](O)[C@H](OC)C3)[C@H](C)[C@@H](O)CC1=O)[C@H](C)C[C@@H]2OC` (some centres unmarked) [JH-FK-10], the “Therapeutic Index Score” value in assay [3] was determined as 3.2. Besides, the “immunosuppressive activity” value in assay [4] is “detectable immunosuppressive activities”. 5.7 nM corresponded to half-maximal inhibition in assay [4] (Table 12) (IC50). Also, the MIC with C. neoformans (37° C., Table 11, read-out: C. neoformans MIC) stood at 0.8 µg/mL (≈ 0.99 µM); with C. neoformans (read-out: C. neoformans MIC, 37° C., Table 12), 0.8 µg/mL (≈ 0.99 µM).
Regarding `CC[C@@H]1/C=C(\C)C[C@H](C)C[C@H](OC)[C@H]2O[C@@](O)(C(=O)C(=O)N3CCCC[C@H]3C(=O)O[C@H](/C(C)=C/[C@@H]3CC[C@@H](O)[C@H](OC)C3)[C@H](C)[C@@H](O)C/C1=N/NC(=O)C(F)(F)F)[C@H](C)C[C@@H]2OC` [JH-FK-07], the minimal effective concentration in the assay with Aspergillus fumigatus amounted to 1.25 µg/mL. Further, the MIC amounted to 0.2 µg/mL in assay [1] and 0.2 µg/mL (≈ 0.222 µM) in assay [2]. Besides, the “broad-spectrum antifungal activity / MIC ranking” value in assay [2] (C. neoformans, C. albicans, A. fumigatus) is “maintained high levels of broad-spectrum antifungal activity across the three species; also recorded: had the lowest MICs for both C. neoformans and C. albicans”.
On to `CC[C@@H]1/C=C(\C)C(O)[C@H](C)C[C@H](OC)[C@H]2O[C@@](O)(C(=O)C(=O)N3CCCC[C@H]3C(=O)O[C@H](/C(C)=C/C3CC[C@@H](O)[C@H](OC)C3)[C@H](C)[C@@H](O)C/C1=N/NC(C)=O)[C@H](C)C[C@@H]2OC` (some centres unmarked) [JH-FK-18], for which the “IL-2 production” value in assay [4] (200 nM) is listed as “no changes in IL-2 production”. Also, the IC50 (usually the concentration at which inhibition is half-maximal) in assay [4] (Table 13) is more than 200 nM. In addition, in the assay with C. neoformans (37° C., Table 13), the “C. neoformans MIC” value was more than 50 µg/mL. Besides, the MIC in the assay with C. neoformans (37° C., Table 13, read-out: C. neoformans MIC) is more than 50 µg/mL. For the same compound, the “antifungal activity” value in the assay with C. neoformans (up to a maximum concentration of 50 μg/mL) is “no detectable antifungal or immunosuppressive activity; also recorded: no detectable biological activity”.
